For one data set, the system named is p-gp. Nature of the data set: qRT-PCR gene expression of p-gp in treated Caco-2 cells. The conditions noted are these: for expression of p-gp (qRT-PCR): Caco-2 cells, 24-hrs treatment, actin as control. In kind it is cell-based. A general note: In qPCR the cycle at which signal appears reflects the starting amount.
Data set [1] in a line: Stability in perfusion solution. The settings on record: Phosphate Buffer Saline pH 7.4 with phenol red, room temperature, 6 hrs, RP-HPLC. The data set is classed as physicochemical.
Data set [2] is described as follows: Rat in-situ single-pass colon perfusion, effective permeability coefficient. The conditions noted are these: N-Nitroso N-methyl urea induced colon cancer, Figure 3.

Structures can show the parent of a compound that is named as a salt.

As for `CCc1c2c(nc3ccc(OC(=O)N4CCC(N5CCCCC5)CC4)cc13)-c1cc3c(c(=O)n1C2)COC(=O)[C@]3(O)CC` [Irinotecan, Irinotecan Hydrochloride], the “expression of p-gp (qRT-PCR)” value with p-gp is given as “increased”. Besides, in data set [1], the “stability in perfusion samples” value is recorded as “stable”. Besides, the “permeability coefficient in cancerous colon in comparison to normal colon” value in data set [2] is listed as “decreased”.
As for `COc1cc(/C=C/C(=O)CC(=O)/C=C/c2ccc(O)c(OC)c2)ccc1O` [curcumin], in the data set with p-gp, the “expression of p-gp (qRT-PCR)” value is given as “significant inhibition”. In addition, in the data set with p-gp (qRT-PCR and Western blot, curcumin treated colon cancer cells), the “decrease in the expression of p-glycoprotein (P-gp)” value is “about 15 fold”.
In the case of `CC(C)NCC(O)COc1cccc2ccccc12` (stereo not drawn) [propranolol], the “stability in perfusion samples” value in data set [1] was “stable”.

(Values after article PMC3914656 (Journal of cancer science & therapy, 2013).)
